From PubChem BioAssay (NCI)
Several values for one entry are separate records, joined by “and”; a condition that tells them apart may be missing. Equal values may be shown once.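 Briefly, cells in 96-well plates were exposed to five compound concentrations for 48 h, and endpoints were estimated by linear interpolation. GI50 marks 50% less growth. Definition used: TGI = concentration required for complete inhibition of growth.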

How the values were obtained:
Assay in all cases: NCI tumour cell line growth inhibition, 48 h
[1] = tested on: SN12K1 renal
[2] = tested on: P388/ADR leukemia
[3] = tested on: KM20L2 colon
[4] = tested on: P388 leukemia
[5] = tested on: DMS 273 small cell lung
[6] = tested on: HOP-18 NSCLC
[7] = tested on: XF 498 CNS
[8] = tested on: DLD-1 colon
[9] = tested on: DMS 114 small cell lung
[10] = tested on: LXFL 529 NSCLC
[11] = tested on: RXF-631 renal

| Structure (SMILES) | TGI [1] | TGI [2] | TGI [3] | TGI [4] | TGI [5] | TGI [6] | TGI [7] | TGI [8] | TGI [9] | TGI [10] | TGI [11] | GI50 [1] | GI50 [3] | GI50 [4] | GI50 [6] | GI50 [2] | GI50 [5] | GI50 [7] |
| --- | --- | --- | --- | --- | --- | --- | --- | --- | --- | --- | --- | --- | --- | --- | --- | --- | --- | --- |
| NCCCNCCSP(=O)(O)O | > 750 µM | > 750 µM | > 750 µM | > 750 µM | > 750 µM | > 750 µM | > 422 µM | > 750 µM | > 750 µM |  |  |  |  |  |  |  |  |  |
| Cc1ccc(N2Cc3c(ccc4ccccc34)OP2(=S)N2CCCC2)cc1 (stereo unspecified) | > 100 µM | > 100 µM | > 100 µM | 47.9 µM | > 100 µM | > 100 µM | > 100 µM | > 100 µM |  |  |  |  |  |  |  |  |  |  |
| CN1COCN=C1NC#N |  |  | > 100 µM |  |  | > 100 µM | > 100 µM | > 100 µM | > 100 µM | > 100 µM | > 100 µM |  |  |  |  |  |  |  |
| COC(=O)c1c(CC(=O)OC(C)C)cc2n(c1=O)Cc1c-2nc2ccccc2c1OC |  |  | > 100 µM |  | > 100 µM | > 100 µM | > 100 µM | > 100 µM | > 100 µM | > 100 µM |  |  |  |  |  |  |  |  |
| O=C(O)C12C=CC(C1)c1ccccc12 (stereo unspecified) |  |  | > 100 µM |  | > 100 µM | > 100 µM |  | > 100 µM | > 100 µM | > 100 µM |  |  |  |  |  |  |  |  |
| CSCSCC(CO)NC(=O)/C=C\c1c(C)[nH]c(=O)[nH]c1=O (stereo unspecified) | 84.9 µM | 332 µM | 129 µM | 164 µM | 267 µM | 267 µM | 9.99 µM | 160 µM | 66.5 µM |  |  |  |  |  |  |  |  |  |
| CCN(CC)CC[n+]1ccc2c(C)c3[nH]c4ccccc4c3c(C)c2c1 | 1.18 µM and 1.8 µM | > 100 µM and 125 µM | 1.51 µM and 6.24 µM | 1.41 µM and 4.27 µM | 1.53 µM and 1.74 µM | 4.82 µM and 7.88 µM |  | 13.5 µM and 14.6 µM |  |  |  | 0.268 µM | 0.27 µM and 0.782 µM | 0.0448 µM and 0.024 µM | 0.901 µM and 1.91 µM |  |  |  |
| O=c1[nH]c(=S)[nH]c2c1CCCN2 |  |  |  |  |  | > 100 µM |  | > 100 µM | > 100 µM | > 100 µM | > 100 µM |  |  |  |  |  |  |  |
| COC1CCC(CO)OO1 (stereo unspecified) |  |  | > 100 µM |  |  |  |  |  | 36.6 µM | > 100 µM |  |  |  |  |  |  |  |  |
| N/C(=N\N=C/c1c(O)cc(O)cc1O)NO | > 100 µM | > 100 µM | > 100 µM | > 100 µM | > 31.6 µM | > 100 µM |  | > 100 µM | > 100 µM |  |  |  |  |  |  |  |  |  |
| Cc1c2cc[n+](C)cc2c(C)c2c1[nH]c1ccc(OCC(F)(F)F)cc12 |  |  | > 100 µM |  | > 31.7 µM and 30.9 µM | 23.4 µM and > 100 µM |  | > 100 µM | > 21.6 µM | 6.5 µM |  |  |  |  |  |  |  |  |
| C=C1C(=O)OC2C[C@@]3(C)CCCC(=C)C3CC12 (stereo partly specified) |  |  | 25.9 µM |  | 10.7 µM | 31.3 µM | 13.5 µM | 14.7 µM | 29.8 µM | 11.8 µM |  |  |  |  |  |  |  |  |
| CC(C)(C1=NC(C(C)(C)C)CO1)C1=N[C@@H](C(C)(C)C)CO1 (stereo partly specified) |  |  | > 100 µM |  | > 100 µM | > 100 µM | > 100 µM | > 100 µM | > 100 µM | > 100 µM |  |  |  |  |  |  |  |  |
| C/C(N=NS(=O)(=O)c1c(C)cc(C)cc1C)=C1\C=CC=CN1O |  |  | > 100 µM |  | > 100 µM | > 100 µM | > 100 µM | > 100 µM | > 100 µM | > 100 µM |  |  |  |  |  |  |  |  |
| CN1Cc2ccccc2C2(COc3ccccc3C2=O)C1 (stereo unspecified) |  |  | > 100 µM |  | > 100 µM | > 100 µM |  | > 100 µM | > 100 µM | > 100 µM |  |  |  |  |  |  |  |  |
| O=Cn1c2ccccc2c2ccccc21 |  |  | > 100 µM |  | > 100 µM | > 100 µM | > 100 µM | > 100 µM | > 100 µM | > 100 µM |  |  |  |  |  |  |  |  |
| CC(C)=CC(=O)OC1C2C(C)=CC(=O)C(O)C2(C)C2C3(O)OCC24C(CC(=O)OC14)C(C)C3O (stereo unspecified) | 0.0169 µM and 0.0213 µM | 0.575 µM and 0.84 µM | 0.197 µM and 0.153 µM | 0.00568 µM | 0.0122 µM and 0.0241 µM | 0.689 µM and 0.493 µM | 0.0217 µM and 0.0556 µM | 0.221 µM and 0.554 µM |  |  |  | 0.00412 µM |  |  | 0.192 µM and 0.0777 µM | 0.181 µM | 0.02 µM | 0.00543 µM |
